Test system: 598228-144-R-J1-PDC complex spheroid viability
Test: Anticancer human tumor 598228-144-R-J1-PDC patient-derived serous endometrial adenocarcinoma cell line growth inhibition [GQUAD]
Conditions: for IC50: curve of first compound; for viability, T/C: stronger effect = lower value
Outline: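 Tumor cells were grown as complex spheroids with HUVEC endothelial cells and mesenchymal stem cells as stroma. G-quadruplex stabilizers were combined with targeted agents over half-log dilutions from near the clinical Cmax, or from 10 microM.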

[1] = second compound 0.0316 µM, first compound 0.000999 µM
[2] = second compound 0.0316 µM, first compound 0.00316 µM
[3] = second compound 0.0316 µM, first compound 0.00999 µM
[4] = second compound 0.0316 µM, first compound 0.0316 µM
[5] = second compound 0.0316 µM, first compound 0.0999 µM
[6] = second compound 0.0316 µM, first compound 0.316 µM
[7] = second compound 0.1 µM, first compound 0.000999 µM
[8] = second compound 0.1 µM, first compound 0.00316 µM
[9] = second compound 0.1 µM, first compound 0.00999 µM
[10] = second compound 0.1 µM, first compound 0.0316 µM
[11] = second compound 0.1 µM, first compound 0.0999 µM
[12] = second compound 0.1 µM, first compound 0.316 µM
[13] = second compound 0.316 µM, first compound 0.000999 µM
[14] = second compound 0.316 µM, first compound 0.00316 µM
[15] = second compound 0.316 µM, first compound 0.00999 µM
[16] = second compound 0.316 µM, first compound 0.0316 µM
[17] = second compound 0.316 µM, first compound 0.0999 µM
[18] = second compound 0.316 µM, first compound 0.316 µM
[19] = second compound 1 µM, first compound 0.000999 µM
[20] = second compound 1 µM, first compound 0.00316 µM
[21] = second compound 1 µM, first compound 0.00999 µM
[22] = second compound 1 µM, first compound 0.0316 µM
[23] = second compound 1 µM, first compound 0.0999 µM
[24] = second compound 1 µM, first compound 0.316 µM
[25] = second compound 3.16 µM, first compound 0.000999 µM
[26] = second compound 3.16 µM, first compound 0.00316 µM
[27] = second compound 3.16 µM, first compound 0.00999 µM
[28] = second compound 3.16 µM, first compound 0.0316 µM
[29] = second compound 3.16 µM, first compound 0.0999 µM
[30] = second compound 3.16 µM, first compound 0.316 µM
[31] = second compound 10 µM, first compound 0.000999 µM
[32] = second compound 10 µM, first compound 0.00316 µM
[33] = second compound 10 µM, first compound 0.00999 µM
[34] = second compound 10 µM, first compound 0.0316 µM
[35] = second compound 10 µM, first compound 0.0999 µM
[36] = second compound 10 µM, first compound 0.316 µM
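Also: spheroids exposed to the agents for one week before reading.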
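For viability, T/C in this document: percent of vehicle DMSO control viability so 100% = untreated growth.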

## Cn1ncnc1[C@H]1c2n[nH]c(=O)c3cc(F)cc(c23)N[C@@H]1c1ccc(F)cc1 + Cc1[nH]c2ccc(F)cc2c1-c1nc2c3cccnc3c3ncccc3c2[nH]1
Second compound 0.0316 µM
  IC50: > 316 nM
Second compound 0.1 µM
  IC50: > 316 nM
Second compound 0.316 µM
  IC50: > 316 nM
Second compound 1 µM
  IC50: > 316 nM
Second compound 3.16 µM
  IC50: < 0.999 nM
Second compound 10 µM
  IC50: > 316 nM
[1]
  viability, T/C: 125%
[2]
  viability, T/C: 86.2%
[3]
  viability, T/C: 106%
[4]
  viability, T/C: 71.6%
[5]
  viability, T/C: 80.8%
[6]
  viability, T/C: 83.3%
[7]
  viability, T/C: 103%
[8]
  viability, T/C: 99%
[9]
  viability, T/C: 78.8%
[10]
  viability, T/C: 70.6%
[11]
  viability, T/C: 93.8%
[12]
  viability, T/C: 73.3%
[13]
  viability, T/C: 78.6%
[14]
  viability, T/C: 79.3%
[15]
  viability, T/C: 76.6%
[16]
  viability, T/C: 72%
[17]
  viability, T/C: 69.7%
[18]
  viability, T/C: 60.4%
[19]
  viability, T/C: 63.9%
[20]
  viability, T/C: 59.2%
[21]
  viability, T/C: 66.2%
[22]
  viability, T/C: 56.7%
[23]
  viability, T/C: 50.9%
[24]
  viability, T/C: 57.7%
[25]
  viability, T/C: 33.1%
[26]
  viability, T/C: 43.8%
[27]
  viability, T/C: 51.1%
[28]
  viability, T/C: 37.9%
[29]
  viability, T/C: 39.6%
[30]
  viability, T/C: 40.3%
[31]
  viability, T/C: 64.3%
[32]
  viability, T/C: 58.9%
[33]
  viability, T/C: 64.6%
[34]
  viability, T/C: 53%
[35]
  viability, T/C: 55.6%
[36]
  viability, T/C: 51.8%

## COc1cccc2c1C(=O)c1c(O)c3c(c(O)c1C2=O)CC(O)(C(=O)CO)CC3OC1CC(N)C(O)C(C)O1 (stereo unspecified) + Cc1cnc(CNC(=O)c2c(=O)c3ccc(N4CCCN(C)CC4)nc3n3c2sc2ccccc23)cn1
Second compound 0.0316 µM
  IC50: 807 nM
Second compound 0.1 µM
  IC50: 745 nM
Second compound 0.316 µM
  IC50: 779 nM
Second compound 1 µM
  IC50: 529 nM
Second compound 3.16 µM
  IC50: 335 nM
Second compound 10 µM
  IC50: < 31.6 nM
[4]
  viability, T/C: 90.4%
Second compound 0.0316 µM, first compound 0.1 µM
  viability, T/C: 73.9%
[6]
  viability, T/C: 79.3%
Second compound 0.0316 µM, first compound 1 µM
  viability, T/C: 43.3%
Second compound 0.0316 µM, first compound 3.16 µM
  viability, T/C: 0.82%
Second compound 0.0316 µM, first compound 10 µM
  viability, T/C: 0.57%
[10]
  viability, T/C: 80.8%
Second compound 0.1 µM, first compound 0.1 µM
  viability, T/C: 56.7%
[12]
  viability, T/C: 77.8%
Second compound 0.1 µM, first compound 1 µM
  viability, T/C: 42.5%
Second compound 0.1 µM, first compound 3.16 µM
  viability, T/C: 1.19%
Second compound 0.1 µM, first compound 10 µM
  viability, T/C: 0.85%
[16]
  viability, T/C: 69.1%
Second compound 0.316 µM, first compound 0.1 µM
  viability, T/C: 64.6%
[18]
  viability, T/C: 80.3%
Second compound 0.316 µM, first compound 1 µM
  viability, T/C: 44.1%
Second compound 0.316 µM, first compound 3.16 µM
  viability, T/C: 0.37%
Second compound 0.316 µM, first compound 10 µM
  viability, T/C: 0.24%
[22]
  viability, T/C: 63.1%
Second compound 1 µM, first compound 0.1 µM
  viability, T/C: 67.6%
[24]
  viability, T/C: 82.9%
Second compound 1 µM, first compound 1 µM
  viability, T/C: 23.8%
Second compound 1 µM, first compound 3.16 µM
  viability, T/C: 0.6%
Second compound 1 µM, first compound 10 µM
  viability, T/C: 0.4%
[28]
  viability, T/C: 44.3%
Second compound 3.16 µM, first compound 0.1 µM
  viability, T/C: 61.6%
[30]
  viability, T/C: 52.7%
Second compound 3.16 µM, first compound 1 µM
  viability, T/C: 0.52%
Second compound 3.16 µM, first compound 3.16 µM
  viability, T/C: 0.72%
Second compound 3.16 µM, first compound 10 µM
  viability, T/C: 0.28%
[34]
  viability, T/C: 45.2%
Second compound 10 µM, first compound 0.1 µM
  viability, T/C: 43.8%
[36]
  viability, T/C: 20.7%
Second compound 10 µM, first compound 1 µM
  viability, T/C: 0.36%
Second compound 10 µM, first compound 3.16 µM
  viability, T/C: 0.41%
Second compound 10 µM, first compound 10 µM
  viability, T/C: 0.29%

## Cn1ncnc1[C@H]1c2n[nH]c(=O)c3cc(F)cc(c23)N[C@@H]1c1ccc(F)cc1 + Cc1cnc(CNC(=O)c2c(=O)c3ccc(N4CCCN(C)CC4)nc3n3c2sc2ccccc23)cn1
Second compound 0.0316 µM
  IC50: > 316 nM
Second compound 0.1 µM
  IC50: > 316 nM
Second compound 0.316 µM
  IC50: > 316 nM
Second compound 1 µM
  IC50: > 316 nM
Second compound 3.16 µM
  IC50: 193 nM
Second compound 10 µM
  IC50: 0.999 nM
[1]
  viability, T/C: 81.7%
[2]
  viability, T/C: 94%
[3]
  viability, T/C: 87.3%
[4]
  viability, T/C: 68.3%
[5]
  viability, T/C: 74.4%
[6]
  viability, T/C: 54.7%
[7]
  viability, T/C: 79.1%
[8]
  viability, T/C: 70.3%
[9]
  viability, T/C: 61.2%
[10]
  viability, T/C: 56.4%
[11]
  viability, T/C: 60.3%
[12]
  viability, T/C: 63.1%
[13]
  viability, T/C: 66.3%
[14]
  viability, T/C: 76.4%
[15]
  viability, T/C: 56.8%
[16]
  viability, T/C: 55.9%
[17]
  viability, T/C: 59%
[18]
  viability, T/C: 55.1%
[19]
  viability, T/C: 55.5%
[20]
  viability, T/C: 54.3%
[21]
  viability, T/C: 56%
[22]
  viability, T/C: 64.2%
[23]
  viability, T/C: 59.3%
[24]
  viability, T/C: 64.1%
[25]
  viability, T/C: 57.5%
[26]
  viability, T/C: 53.8%
[27]
  viability, T/C: 52.9%
[28]
  viability, T/C: 58.5%
[29]
  viability, T/C: 57%
[30]
  viability, T/C: 42%
[31]
  viability, T/C: 40.5%
[32]
  viability, T/C: 45.7%
[33]
  viability, T/C: 59.1%
[34]
  viability, T/C: 38.1%
[35]
  viability, T/C: 51.7%
[36]
  viability, T/C: 32.5%

Source: PubChem BioAssay AID2060506 (Molecular Pharmacology Branch, DTP, NCI, 2025)
